Experimental data as given in ChEMBL document CHEMBL4346728, “Discovery and development of DNA polymerase IIIC inhibitors to treat Gram-positive infections” (Bioorg Med Chem, 2019).
Converted amounts (≈) assume the structure as drawn. One block for each compound: values may come before it. The source made the active and inactive calls. The rule behind the calls is not given here.

Tests used:
[1] = Inhibition of Staphylococcus aureus R27 DNA polymerase 3C using activated calf thymus DNA as substrate in presence of dATP/dGTP/dCTP/[3H]dTTP measured for 20 mins
Staphylococcus aureus [2] = assay: Antibacterial activity against methicillin-resistant Staphylococcus aureus by CLSI guideline based method; format: functional
Enterococcus faecium [3] = assay: Antibacterial activity against vancomycin-resistant Enterococcus faecium by CLSI guideline based method; format: functional
Streptococcus pyogenes = assay: Antibacterial activity against macrolide-resistant Streptococcus pyogenes by CLSI guideline based method; format: functional
[4] = Inhibition of Bacillus subtilis DNA polymerase 3
Clostridioides difficile [5] = assay: Antibacterial activity against Clostridium difficile by CLSI method; format: functional
Clostridioides difficile [6] = assay: Antibacterial activity against vancomycin-resistant Clostridium difficile by CLSI method; format: functional
Clostridioides difficile [7] = assay: Antibacterial activity against metronidazole-resistant Clostridium difficile by CLSI method; format: functional
Clostridioides difficile [8] = assay: In vivo inhibition of Clostridium difficile ATCC 43255 infected in golden syrian hamster assessed as reduction in recurrence rate at 50 mg/kg, po bid for 7 days relative to control; format: functional; settings: 168 h
[9] = Inhibition of recombinant Bacillus subtilis DNA polymerase 3C expressed in Escherichia coli using activated calf thymus DNA as substrate after 10 mins in presence of dATP/dCTP/[3H]dTTP/dATP by liquid scintillation counting analysis
Bacillus subtilis [10] = assay: Antibacterial activity against Bacillus subtilis ATCC BD54 incubated for 16 to 24 hrs by microplate reader analysis; format: functional
Staphylococcus aureus [11] = assay: Antibacterial activity against Staphylococcus aureus ATCC 25923 incubated for 16 to 24 hrs by microplate reader analysis; format: functional
Staphylococcus aureus [12] = assay: Antibacterial activity against methicillin-resistant Staphylococcus aureus B42876 incubated for 16 to 24 hrs by microplate reader analysis; format: functional
Enterococcus faecium [13] = assay: Antibacterial activity against Enterococcus faecium incubated for 16 to 24 hrs by microplate reader analysis; format: functional
Enterococcus faecalis [14] = assay: Antibacterial activity against Enterococcus faecalis ATCC 29212 incubated for 16 to 24 hrs by microplate reader analysis; format: functional
Enterococcus faecium [15] = assay: Antibacterial activity against vancomycin-resistant Enterococcus faecium incubated for 16 to 24 hrs by microplate reader analysis; format: functional
Escherichia coli = assay: Antibacterial activity against Escherichia coli J53 incubated for 16 to 24 hrs by microplate reader analysis; format: functional
Bacillus subtilis [16] = assay: Antibacterial activity against Bacillus subtilis ATCC BD54 incubated for 16 to 18 hrs by microplate reader analysis; format: functional
[17] = Inhibition of recombinant Staphylococcus aureus DNA polymerase 3C expressed in Escherichia coli BL21 cells assessed as assessed as reduction in [3H]dTTP incorporation in to activated calf thymus DNA using calf thymus DNA as substrate incubated for 30 mins by scintillation counting analysis
Bacillus subtilis [18] = assay: Antibacterial activity against Bacillus subtilis F2 incubated for overnight; format: functional
Enterococcus faecium [19] = assay: Antibacterial activity against Enterococcus faecium RLA1 incubated for overnight; format: functional
Staphylococcus aureus [20] = assay: Antibacterial activity against Staphylococcus aureus MB2865 incubated for overnight; format: functional
Streptococcus pneumoniae [21] = assay: Antibacterial activity against Streptococcus pneumoniae MCL5350 incubated for overnight; format: functional
[22] = Inhibition of bacterial DNA polymerase 3C using dATP/dCTP/dTTP/dGTP as substrate in presence of activated calf thymus DNA incubated for 15 mins and measured for 1 min by luciferase based enzymatic assay; design: species or system Bacteria
Staphylococcus aureus [23] = assay: Antibacterial activity against Staphylococcus aureus 133 incubated for 18 hrs by broth microdilution method; format: functional; settings: Staphylococcus aureus, 133, 18 h
Streptococcus pneumoniae [24] = assay: Antibacterial activity against Streptococcus pneumoniae 1707/4 incubated for 18 hrs under microaerophilic condition by broth microdilution method; format: functional; settings: 1707/4, 18 h
Enterococcus faecalis [25] = assay: Antibacterial activity against Enterococcus faecalis ICB 27159 incubated for 18 hrs under microaerophilic condition by broth microdilution method; format: functional; settings: ICB 27159, 18 h
Enterococcus faecalis [26] = assay: Antibacterial activity against Enterococcus faecalis ICB 27159 infected in CFW1 mouse assessed as mouse survival at 5 mg/kg, iv administered at 30 mins post infection and measured over 5 days; format: functional, organism-based
Staphylococcus aureus [27] = assay: Antibacterial activity against Staphylococcus aureus 133 infected in CFW1 mouse, iv administered at 30 mins post infection and measured over 5 days; format: functional; settings: Staphylococcus aureus, 133, iv

IC50 [1]: 10000 nM
Structure (SMILES): CCc1cc(Nc2cc(Oc3ccc(Br)cc3)nc(N)n2)ccc1C

Structure (SMILES): Cc1noc(C)c1C(=O)N(C)Cc1csc(NC(=O)NCc2cccc(F)c2)n1
MIC90 (Staphylococcus aureus [2]): 1 to 4 µg/mL (≈ 2.4 to 9.58 µM)
MIC90 (Enterococcus faecium [3]): 1 to 4 µg/mL (≈ 2.4 to 9.58 µM)
MIC90 (Streptococcus pyogenes): 1 to 4 µg/mL (≈ 2.4 to 9.58 µM)

IC50 [4]: 1000 nM
Structure (SMILES): CCc1cc(Nc2cc(O)nc(O)n2)ccc1C

Structure (SMILES): O=c1[nH]c(NCc2ccc(Cl)c(Cl)c2)nc2ncn(CCN3CCOCC3)c12 [IBEZAPOLSTAT]
MIC50 (Clostridioides difficile [5]): 2 µg/mL (≈ 4.72 µM)
MIC90 (Clostridioides difficile [5]): 4 µg/mL (≈ 9.45 µM)
MIC50 (Clostridioides difficile [6]): 2 µg/mL (≈ 4.72 µM)
MIC90 (Clostridioides difficile [6]): 4 µg/mL (≈ 9.45 µM)
MIC50 (Clostridioides difficile [7]): 2 µg/mL (≈ 4.72 µM)
MIC90 (Clostridioides difficile [7]): 4 µg/mL (≈ 9.45 µM)
inhibition in vivo at 50 mg/kg (Clostridioides difficile [8]): 40%

Structure (SMILES): CCc1cc(Nc2cc(=O)n(CCCCN3CCCCC3)c(=O)[nH]2)ccc1C
IC50 [9]: 28 nM
MIC (Bacillus subtilis [10]): 10 µg/mL (≈ 26 µM)
MIC (Staphylococcus aureus [11]): 20 µg/mL (≈ 52 µM)
MIC (Staphylococcus aureus [12]): 40 µg/mL (≈ 104 µM)
MIC (Enterococcus faecium [13]): 20 µg/mL (≈ 52 µM)
MIC (Enterococcus faecalis [14]): 20 µg/mL (≈ 52 µM)
MIC (Enterococcus faecium [15]): 10 µg/mL (≈ 26 µM)
MIC (Escherichia coli): > 20 µg/mL

IC50 [9]: 200 nM
MIC (Bacillus subtilis [16]): 0.625 µg/mL (≈ 1.52 µM)
Structure (SMILES): COc1ccc(-c2cc(C(=O)N/N=C/c3cc(OC)c(OC)c(OC)c3)[nH]n2)cc1

Structure (SMILES): CS(=O)(=O)CCOCc1csc(NC(=O)NCc2ccc(Cl)c(Cl)c2)n1
MIC90 (Staphylococcus aureus [2]): 1 to 8 µg/mL (≈ 2.28 to 18.2 µM)
MIC90 (Enterococcus faecium [3]): 1 to 8 µg/mL (≈ 2.28 to 18.2 µM)
MIC90 (Streptococcus pyogenes): 1 to 8 µg/mL (≈ 2.28 to 18.2 µM)

Structure (SMILES): Cc1ncc([N+](=O)[O-])n1CCO [METRONIDAZOLE]
MIC50 (Clostridioides difficile [5]): 1 µg/mL (≈ 5.84 µM)
MIC90 (Clostridioides difficile [5]): 4 µg/mL (≈ 23.4 µM)

Structure (SMILES): CCc1cc(Nc2cc(=O)n(CCCCO)c(=O)[nH]2)ccc1C
IC50 [9]: 63 nM
MIC (Bacillus subtilis [10]): < 1.25 µg/mL
MIC (Staphylococcus aureus [11]): 5 µg/mL (≈ 15.8 µM)
MIC (Staphylococcus aureus [12]): 5 µg/mL (≈ 15.8 µM)
MIC (Enterococcus faecium [13]): 2.5 µg/mL (≈ 7.88 µM)
MIC (Enterococcus faecalis [14]): 5 µg/mL (≈ 15.8 µM)
MIC (Enterococcus faecium [15]): 2.5 µg/mL (≈ 7.88 µM)
MIC (Escherichia coli): > 20 µg/mL

IC50 [17]: 71000 nM
MIC (Bacillus subtilis [18]): ≥ 9 µg/mL
MIC (Enterococcus faecium [19]): ≥ 9 µg/mL
MIC (Staphylococcus aureus [20]): ≥ 9 µg/mL
MIC (Streptococcus pneumoniae [21]): ≥ 9 µg/mL
Structure (SMILES): CCc1cc(Nc2nc(O)c3c[nH]nc3n2)ccc1C

Structure (SMILES): CN[C@H](CC(C)C)C(=O)N[C@H]1C(=O)N[C@@H](CC(N)=O)C(=O)N[C@H]2C(=O)N[C@H]3C(=O)N[C@H](C(=O)N[C@H](C(=O)O)c4cc(O)cc(O)c4-c4cc3ccc4O)[C@H](O)c3ccc(c(Cl)c3)Oc3cc2cc(c3O[C@@H]2O[C@H](CO)[C@@H](O)[C@H](O)[C@H]2O[C@H]2C[C@](C)(N)[C@H](O)[C@H](C)O2)Oc2ccc(cc2Cl)[C@H]1O [VANCOMYCIN]
MIC50 (Clostridioides difficile [5]): 1 µg/mL (≈ 0.69 µM)
MIC90 (Clostridioides difficile [5]): 4 µg/mL (≈ 2.76 µM)

IC50 [22]: 100 nM
MIC (Staphylococcus aureus [23]): 16 µg/mL (≈ 36.6 µM)
MIC (Streptococcus pneumoniae [24]): 8 µg/mL (≈ 18.3 µM)
MIC (Enterococcus faecalis [25]): 8 µg/mL (≈ 18.3 µM)
Structure (SMILES): CCc1cc(Nc2cc(=O)n(CC3CCN(C(=O)c4ccno4)CC3)c(=O)[nH]2)ccc1C
Activity (Enterococcus faecalis [26]): Active
ED50 (Staphylococcus aureus [27]): 10 mg/kg

Structure (SMILES): COCCS(=O)(=O)Cc1csc(NC(=O)NCc2ccc(Cl)c(Cl)c2)n1
MIC (Staphylococcus aureus [2]): 0.5 to 4 µg/mL (≈ 1.14 to 9.12 µM)
MIC (Enterococcus faecium [3]): 0.5 to 4 µg/mL (≈ 1.14 to 9.12 µM)
MIC (Streptococcus pyogenes): 0.5 to 4 µg/mL (≈ 1.14 to 9.12 µM)
